Results on 38 compounds are retold here after patent US10051861B2, “N-arylamidine-substituted trifluoroethyl sulfide derivatives as acaricides and insecticides” (BAYER CROPSCIENCE AG, priority 2011, dated 2018).

The nature of data set [1]: logP by HPLC on reversed-phase columns (C 18), EEC Directive 79/831 Annex V.A8. Type of data set: physicochemical. On the procedure: Calibration is carried out using unbranched alkan-2-ones (having from 3 to 16 carbon atoms) with known log P values (the log P values are determined by the retention times using linear interpolation between two successive alkanones).
Data set [2] relates to greenhouse red spider mite (Tetranychus urticae). The data set can be described thus: Tetranychus urticae spray test, OP-resistant (TETRUR), bean leaf disks. Type of data set: in vivo. Particulars: application rate 500 g/ha, after 6 days; for pest or weed control at 500 g/ha: Tetranychus urticae, foliar, 144 h, read-out: efficacy (spider mites killed). On the procedure: After 6 days, the effect in % is determined.

The mark [3] stands for this setting: [a] LC-MS, acidic range, pH 2.7, 0.1% aqueous formic acid/acetonitrile.
Setting [4] is: reversed-phase C18 HPLC column, pH 2.7, [a] LC-MS, acidic range, pH 2.7, 0.1% aqueous formic acid/acetonitrile, read-out: logP(HCOOH).
[5] abbreviates: reversed-phase C18 HPLC column, pH 7.8, [b] LC-MS, neutral range, pH 7.8, 0.001 molar aqueous ammonium bicarbonate/acetonitrile, read-out: logP(neutral).
The mark [6] stands for this setting: [a] LC-MS, acidic range, pH 2.7, 0.1% aqueous formic acid/acetonitrile, read-out: logP(HCOOH).
Where [7] appears, read: [b] LC-MS, neutral range, pH 7.8, 0.001 molar aqueous ammonium bicarbonate/acetonitrile, read-out: logP(neutral).

Like-named read-outs stand apart in the source and are kept apart here. Marks after values point to notes of the source that are not given here.

With `Cc1cc(F)c(NC(=S)NCC(F)(F)F)cc1[S+]([O-])CC(F)(F)F` (stereo not shown), the “logP(HCOOH)” value in data set [1] (setting [3]) is given as 2.34. Besides, the “logP(neutral)” value in data set [1] ([b] LC-MS, neutral range, pH 7.8, 0.001 molar aqueous ammonium bicarbonate/acetonitrile) came out at 2.30.

Consider `Cc1cc(C)c(SCC(F)(F)F)cc1N=C1NCCO1` [2,4-Dimethyl-N-[1,3-oxazolidin-2-ylidene]-5-[(2,2,2-trifluoroethyl)sulfanyl]aniline], for which the chromatographic logP in data set [1] (pH 2.7, logP(HCOOH)) is 1.36. On to `Cc1cc(F)c(N=C2NCCS2)cc1[S+]([O-])CC(F)(F)F` (stereo not shown) [2-Fluoro-4-methyl-N-[1,3-thiazolidin-2-ylidene]-5-[(2,2,2-trifluoroethyl)sulfinyl]aniline], for which the chromatographic logP in data set [1] (setting [4]) is 0.8. Turning to `Cc1cc(F)c(/N=C2\CCCN2c2ccccc2)cc1SCC(F)(F)F` [2-Fluoro-4-methyl-N-[(2E)-1-phenylpyrrolidin-2-ylidene]-5-[(2,2,2-trifluoroethyl)sulfanyl]aniline], the chromatographic logP in data set [1] (setting [4]) was 1.83; in data set [1] (setting [5]) it was 4.92. In the case of `Nc1cccc(SCC(F)(F)F)c1` [3-[(2,2,2-Trifluoroethyl)sulfanyl]aniline], the chromatographic logP in data set [1] (setting [4]) was found to be 2.01.

On to `Cc1cc(F)c(SCC(F)(F)F)cc1NC(=O)C(F)(F)F` [III-4, 2,2,2-Trifluoro-N-{4-fluoro-2-methyl-5-[(2,2,2-trifluoroethyl)sulfanyl]phenyl}acetamide], for which the chromatographic logP in data set [1] (setting [4]) amounted to 3.16; in data set [1] (setting [5]), 3.1. As to `O=C(Nc1cc(SCC(F)(F)F)c(Br)cc1Cl)C(F)(F)F` [III-5, N-{4-Bromo-2-chloro-5-[(2,2,2-trifluoroethyl)sulfanyl]phenyl}-2,2,2-trifluoroacetamide], the chromatographic logP in data set [1] (setting [4]) came out at 3.78.

`O=C(Nc1cc(SCC(F)(F)F)c(Br)cc1Br)C(F)(F)F` [III-6, N-{2,4-Dibromo-5-[(2,2,2-trifluoroethyl)sulfanyl]phenyl}-2,2,2-trifluoroacetamide]: the chromatographic logP in data set [1] (setting [4]) came out at 3.81. Take `O=C(Nc1cc(SCC(F)(F)F)c(F)cc1Cl)C(F)(F)F` [III-7, N-{2-Chloro-4-fluoro-5-[(2,2,2-trifluoroethyl)sulfanyl]phenyl}-2,2,2-trifluoroacetamide]: the results for the chromatographic logP in data set [1] (setting [4]) and in data set [1] (setting [5]) were 3.33 and 3.11, respectively. For the compound `O=C(Nc1cc(SCC(F)(F)F)c(Br)cc1Cl)C(F)(F)F` [III-9, N-{4-Bromo-2-chloro-5-[(2,2,2-trifluoroethyl)sulfanyl]phenyl}-2,2,2-trifluoroacetamide], in data set [1] (setting [3]), the “logP(HCOOH)” value stood at 3.46. Moreover, the chromatographic logP in data set [1] (setting [5]) was 3.11. On to `Cc1cc(F)c(SSc2cc(NC(=O)C(F)(F)F)c(C)cc2F)cc1NC(=O)C(F)(F)F` [IV-2, N,N′-[Disulfanediylbis(4-fluoro-6-methylbenzene-3,1-diyl)]bis(2,2,2-trifluoroacetamide)], for which the chromatographic logP came to 4 in data set [1] (setting [4]) and 3.92 in data set [1] (setting [5]). For the compound `O=C(Nc1cc(SSc2cc(NC(=O)C(F)(F)F)c(Cl)cc2Br)c(Br)cc1Cl)C(F)(F)F` [IV-3, N,N′-[Disulfanediylbis(4-bromo-6-chlorobenzene-3,1-diyl)]bis(2,2,2-trifluoroacetamide)], the chromatographic logP in data set [1] (setting [4]) stood at 5.42. For `O=C(Nc1cc(SSc2cc(NC(=O)C(F)(F)F)c(Br)cc2Br)c(Br)cc1Br)C(F)(F)F` [IV-4, N,N′-[Disulfanediylbis(4,6-dibromobenzene-3,1-diyl)]bis(2,2,2-trifluoroacetamide)], the chromatographic logP was determined as 5.62 in data set [1] (setting [4]) and 4.49 in data set [1] (setting [5]). For `O=C(Nc1cc(SSc2cc(NC(=O)C(F)(F)F)c(Cl)cc2F)c(F)cc1Cl)C(F)(F)F` [IV-5, N,N′-[Disulfanediylbis(6-chloro-4-fluorobenzene-3,1-diyl)]bis(2,2,2-trifluoroacetamide)] the same measures were 4.45 and 3.81. In the case of `O=C(Nc1cc(SSc2cc(NC(=O)C(F)(F)F)c(F)cc2Br)c(Br)cc1F)C(F)(F)F` [IV-7, N,N′-[Disulfanediylbis(4-bromo-6-fluorobenzene-3,1-diyl)]bis(2,2,2-trifluoroacetamide)], the chromatographic logP in data set [1] (setting [4]) was 4.76; in data set [1] (setting [5]) it was 4.02. With `Cc1cc(F)c(N=C(NS(C)(=O)=O)C(F)(F)F)cc1SCC(F)(F)F` [Ia-11], in data set [1] (pH 2.7), the “logP(HCOOH)” value was 3.05^[a]. In addition, the “efficacy (spider mites killed)” value in data set [2] was found to be 100%. Regarding `Cc1cc(F)c(SCC(F)(F)F)cc1N=C(N(C)C)C(F)(F)F` [Ia-24], in data set [1] (pH 2.7), the “logP(HCOOH)” value is 4.53. In addition, the “logP(neutral)” value in data set [1] (pH 7.8) was 4.47. Turning to `Cc1cc(F)c(/N=C(/NCC2CC2)C(F)(F)F)cc1SCC(F)(F)F` [Ia-41], the chromatographic logP in data set [1] (setting [4]) turned out to be 4.62. In data set [2], the pest or weed control at 500 g/ha is 100%. As to `Cc1cc(F)c(/N=C(/NCc2ccc(C(F)(F)F)cc2)C(F)(F)F)cc1SCC(F)(F)F` [Ia-89], the chromatographic logP in data set [1] (setting [4]) and in data set [1] (setting [5]) was 5.15 in each case. Further, the pest or weed control at 500 g/ha in data set [2] was 100%. On to `Cc1cc(F)c(/N=C(/Nc2ccccc2)C(F)(F)F)cc1SCC(F)(F)F` [Ia-96], for which the chromatographic logP in data set [1] (setting [4]) and in data set [1] (setting [5]) was 4.37 throughout. Besides, the pest or weed control at 500 g/ha in data set [2] came to 100%.

In the case of `Cc1cc(F)c(/N=C(\N)c2cnccn2)cc1SCC(F)(F)F` [Ia-117, N′-{2-Fluoro-4-methyl-5-[(2,2,2-trifluoroethyl)sulfanyl]phenyl}pyrazine-2-carboximidamide], the chromatographic logP in data set [1] (setting [4]) worked out at 1.24. The pest or weed control at 500 g/ha in data set [2] was found to be 90%. With `COc1ccc(N/C(=N/c2cc(SCC(F)(F)F)c(C)cc2F)C(F)(F)F)cc1` [Ia-129], the chromatographic logP in data set [1] (setting [4]) and in data set [1] (setting [5]) was 4.2 in each case. Also, the pest or weed control at 500 g/ha in data set [2] is 100%. For `Cc1cc(F)c(N=C(N)c2ccccc2F)cc1SCC(F)(F)F` [Ia-143], the chromatographic logP in data set [1] (setting [4]) was found to be 1.37; in data set [1] (setting [5]), 3.25. Regarding `Cc1cc(F)c(/N=C(\NCC(F)(F)F)C2CC2)cc1SCC(F)(F)F` [Ia-145, N′-{2-fluoro-4-methyl-5-[(2,2,2-trifluoroethyl)sulfanyl]phenyl}-N-(2,2,2-trifluoroethyl)cyclopropanecarboximidamide], the chromatographic logP in data set [1] (setting [4]) came out at 1.99; in data set [1] (setting [5]), 4.12. For the same compound, the pest or weed control at 500 g/ha in data set [2] was 100%. For `CN/C(=N/c1cc(SCC(F)(F)F)c(C)cc1F)c1ccc(OC)cc1` [Ia-165] the same measures were 1.68, 3.49 and 100%. As to `Cc1cc(F)c(/N=C(\c2ccco2)N(C)C)cc1SCC(F)(F)F` [Ia-166, N′-{2-Fluoro-4-methyl-5-[(2,2,2-trifluoroethyl)sulfanyl]phenyl}-N,N-dimethylfuran-2-carboximidamide], the values for the chromatographic logP in data set [1] (setting [4]) and in data set [1] (setting [5]) were 1.57 and 3.94, respectively. Moreover, in data set [2], the pest or weed control at 500 g/ha was found to be 100%. Regarding `Cc1cc(F)c(/N=C2\CCCN2c2ccccc2)cc1[S+]([O-])CC(F)(F)F` (stereo not shown) [Ib-55, 2-Fluoro-4-methyl-N-[(2E)-1-phenylpyrrolidin-2-ylidene]-5-[(2,2,2-trifluoroethyl)sulfinyl]aniline], the chromatographic logP in data set [1] (setting [4]) is 1.27; in data set [1] (setting [5]), 3.47.

On to `COc1ccccc1/C(=N\c1cc([S+]([O-])CC(F)(F)F)c(C)cc1F)N(C)C` (stereo not shown) [Ib-161], for which the results for the chromatographic logP in data set [1] (setting [4]) and in data set [1] (setting [5]) were 1.28 and 2.95, respectively. In the case of `Cc1cc(F)c(/N=c2\scc(C3(Cl)CC3)n2CC(F)(F)F)cc1[S+]([O-])CC(F)(F)F` (stereo not shown) [Ib-172], the pest or weed control at 500 g/ha in data set [2] was 90%.

Regarding `Cc1cc(F)c(/N=c2\snc(C)n2C)cc1[S+]([O-])CC(F)(F)F` (stereo not shown) [Ib-174], the pest or weed control at 500 g/ha in data set [2] worked out at 100%. Regarding `COc1cc(C)c(SSc2cc(NC(C)=O)c(OC)cc2C)cc1NC(C)=O` [N,N′-[Disulfanediylbis(6-methoxy-4-methylbenzene-3,1-diyl)]diacetamide], in data set [1] (setting [4]), the chromatographic logP worked out at 2.73. For `Cc1cc(F)c(NC(=O)c2ccc(C(F)(F)F)cc2)cc1SCC(F)(F)F` [N-{2-Fluoro-4-methyl-5-[(2,2,2-trifluoroethyl)sulfanyl]phenyl}-4-(trifluoromethyl)benzamide], the figures for the chromatographic logP in data set [1] (setting [4]) and in data set [1] (setting [5]) were 4.2 and 4.17, respectively. `FC(F)(F)CSc1cc(N=C(Cl)C(F)(F)F)ccc1Cl` [N-{4-Chloro-3-[(2,2,2-trifluoroethyl)sulfanyl]phenyl}-2,2,2-trifluoroethanimidoyl chloride]: the chromatographic logP in data set [1] (setting [4]) stood at 4.77; in data set [1] (setting [5]), 4.73. For `Cc1cc(F)ccc1NC(=O)C(F)(F)F` [VI-2, 2,2,2-Trifluoro-N-(4-fluoro-2-methylphenyl)acetamide] the same measures were 2.2 and 2.19. In the case of `O=C(Nc1ccc(Br)cc1Cl)C(F)(F)F` [VI-3, N-(4-Bromo-2-chlorophenyl)-2,2,2-trifluoroacetamide], the chromatographic logP in data set [1] (setting [6]) stood at 3.01; in data set [1] (setting [7]), 2.81. With `O=C(Nc1ccc(Br)cc1Br)C(F)(F)F` [VI-4, N-(2,4-Dibromophenyl)-2,2,2-trifluoroacetamide], the figures for the chromatographic logP in data set [1] (setting [6]) and in data set [1] (setting [7]) were 3.1 and 2.89, respectively. Take `O=C(Nc1ccc(F)cc1Cl)C(F)(F)F` [VI-5, N-(2-Chloro-4-fluorophenyl)-2,2,2-trifluoroacetamide]: the chromatographic logP came to 2.46 in data set [1] (setting [6]) and 2.31 in data set [1] (setting [7]).

As to `O=C(Nc1ccc(Br)cc1F)C(F)(F)F` [VI-7, N-(4-Bromo-2-fluorophenyl)-2,2,2-trifluoroacetamide], the chromatographic logP in data set [1] (setting [6]) was 2.73; in data set [1] (setting [7]), 2.51.
